Data as given in patent US10925913B2, “Low toxic tripterygium neoglycosides, preparation method and application thereof” (priority 2017, dated 2021).
“Also recorded” adds a separate entry of the source.

Assays:
induced T/B lymphocyte = experiment: Specific inhibition experiment: Con A- or LPS-induced T/B lymphocyte increment (MTT); assay type: cell-based, rat; settings: FIG. 5
Procedure: The pretreatment of lymphocytes in the specific inhibition experiment is the same as above. After lymphocytes inoculated into 96-well culture plates, drug was added. 200 μL of drug was added each to blank control group (culture medium only), T lymphocyte specific increment inducer Con A model group (5 μg/mL, corresponding model group) and B lymphocyte specific increment inducer LPS model group (5 μg/mL, corresponding model group). Con A administration group was firstly added multiple doses of T lymphocyte specific increment inducer Con A 100 μL ([…], corresponding model group) separately, and then added 100 μL of triptriolide (100, 200, 300, 400 μg/mL) with different concentrations separately. In LPS administration group, multiple doses of B lymphocyte specific increment inducer LPS 100 μL ([…], corresponding model group) were added respectively, and 100 μL of triptriolide (100, 200, 300, 400 μg/mL) with different concentrations were added respectively.

[1] = tested on: normal T and B lymphocytes; experiment: Immunosuppressive activity: inhibition of normal T/B lymphocyte increment (MTT); assay type: cell-based, rat; settings: FIG. 4
Procedure: The rats were sacrificed by neck amputation and soaked in 75% ethanol. The spleens of the rats were taken out in an ultra-clean bench, washed in DPBS for 3 times, fully moistened, 200 mesh gauze was placed on a dish (35 mm diameter), it is evenly ground in one direction by a piston of a 10 mL syringe, the spleen was moistened with DPBS while grinding. The collected lymphocyte suspension was centrifuged at 1500 rpm for 3 min, and 7 mL of erythrocyte lysate was added to each spleen suspension. After acting at room temperature for 30 min, the cells were centrifuged at 1500 rpm for 3 min. After discarding supernatant, the cells were washed with DPBS for 3 times to remove excess serum, added with […] of 70% Percoll to the bottom layer of 15 mL centrifuge tube and […] of 40% Percoll to the upper layer of 15 mL centrifuge tube, then centrifuged 800 g at room temperature for 20 min on a horizontal centrifuge.

Raw264.7 cells = experiment: Anti-inflammatory activity in LPS-induced Raw264.7 cell inflammation model; assay type: cell-based, rat
Procedure: Raw264.7 37° C., 5% CO2 RPMI-1640+10% FBS+1% Pen Strep. Finally, the cell was cultured in an incubator until 80% of the cells adhere to the wall. The cells in logarithmic growth phase were taken and adjusted to the appropriate cell density in a 96-well plate after digestion with 0.25% trypsin. After adhering to the wall in monolayer, the cell was cultured in a synchronized medium for 12 hours. After entering the quiescent period, except for the blank control group, 1 mL of LPS (1 μg/mL) was used as a modeling agent in other groups to induce the cell inflammation model in the cell in each group. Meanwhile, drug treatment is carried out: 1 mL of culture medium was added to the model group, 1 mL of liquid drug with corresponding concentration was added to the drug administration group (triptolide 50, 100, 150, 200 μg/mL dose group), and 2 ml of culture medium was directly added to the blank control group. Western blot, qPCR, ELISA and other methods were used to detect the expression levels of inflammation-related proteins, genes, cytokines, the expressions of NF-κB transcription-related factors, and the expressions of IL-6, IL-10, TNF-α and other inflammatory cytokines in different treatment groups.

[2] = tested on: rat with ear swelling model; settings: Zheng Jiarun, et al., 1991; cited from earlier work
podocyte cell line MPCS = experiment: Protection of podocytes from ADM-induced apoptosis; assay type: cell-based, rat
Procedure: Rat immortalized podocyte cell line MPCS is presented by nephrology department of Guangdong provincial hospital of Traditional Chinese Medicine. The treatment methods of […] are presented as follows: Western blot, IFC, qPCR, ELISA and other methods are used to detect the expression levels of inflammation-related proteins, genes and cytokines in different treatment groups. The podocyte cell is temperature sensitive cell, increases at 33° C. RPMI-1640+10% FBS+1% Pen Strep+10 U/mL γ-IFN, and differentiates at 37° C. RPMI-1640+10% FBS+1% Pen Strep medium for 10-14 days. […] The expression of podocaine membrane protein podocine and apoptosis-related gene Bax were detected by flow cytometry using FITC-labeled Annexin V and Propidium iodide (PI) to differentiate early apoptotic cells from late apoptotic cells and dead cells.

SMILES: CC(C)[C@]1(O)[C@H](O)[C@@H]2O[C@]23[C@]2(O[C@H]2C[C@H]2C4=C(CC[C@@]23C)C(=O)OC4)[C@@H]1O [triptriolide]
- immunosuppressive effect (induced T/B lymphocyte; Con A-induced T vs LPS-induced B lymphocytes): lower immunosuppressive effect; also recorded: on T lymphocytes is significantly higher than that on B lymphocytes
- cell activity of Con A- / LPS-induced lymphocytes (induced T/B lymphocyte; different concentrations, 24 h, MTT): higher than that of the blank control group, but lower than that of the model group
- inhibiting increment of normal T and B lymphocytes in vitro ([1]; 50, 100, 150, 200 μg/mL, 24 h, MTT): dose-dependent
- cell activity of normal T and B lymphocytes ([1]; each administration group, p<0.05): significantly lower than that of the control group and model group
- effects of inflammatory factors TNF-α and IL-10 (Raw264.7 cells; FIGS. 7 and 8): effectively reduce
- cytokine secretion in LPS-induced inflammatory injury model (Raw264.7 cells; LPS 1 μg/mL, FIG. 6): can improve cytokine secretion
- expression of IL-10 (Raw264.7 cells; at high concentration): can be increased
- anti-inflammatory activity [2]: weak anti-inflammatory activity
- immunosuppressive activity [2]: no immunosuppressive activity
- apoptosis of podocytes (podocyte cell line MPCS; 0.8 μg/mL ADM apoptosis model, FIGS. 9 to 11): attenuated
- apoptosis of podocytes at high concentration (podocyte cell line MPCS; 0.8 μg/mL ADM, high concentration): upward trend
